From ChEMBL document CHEMBL4130617, “Prenylated 2-Phenoxychromones and Flavonoids from Epimedium brevicornum and Revised Structures of Epimedonins A and B” (J Nat Prod, 2018)

Experiments:
HL-60 [1] = assay: Growth inhibition of human HL60 cells at 40 uM after 48 hrs by MTS assay relative to control; assay type: functional; settings: HL-60, 48 h, read-out: GI
SMMC-7721 [2] = assay: Growth inhibition of human SMMC7721 cells at 40 uM after 48 hrs by MTS assay relative to control; assay type: functional; settings: SMMC-7721, 48 h, read-out: GI
A549 [3] = assay: Growth inhibition of human A549 cells at 40 uM after 48 hrs by MTS assay relative to control; assay type: functional; settings: A549, 48 h, read-out: GI
MCF7 [4] = assay: Growth inhibition of human MCF7 cells at 40 uM after 48 hrs by MTS assay relative to control; assay type: functional; settings: MCF7, 48 h, read-out: GI
SW480 [5] = assay: Growth inhibition of human SW480 cells at 40 uM after 48 hrs by MTS assay relative to control; assay type: functional; settings: SW480, 48 h, read-out: GI
HL-60 [6] = assay: Cytotoxicity against human HL60 cells after 48 hrs by MTS assay; assay type: functional, cell-based; settings: HL-60, 48 h
SMMC-7721 [7] = assay: Cytotoxicity against human SMMC7721 cells after 48 hrs by MTS assay; assay type: functional, cell-based; settings: SMMC-7721, 48 h
A549 [8] = assay: Cytotoxicity against human A549 cells after 48 hrs by MTS assay; assay type: functional, cell-based; settings: A549, 48 h
MCF7 [9] = assay: Cytotoxicity against human MCF7 cells after 48 hrs by MTS assay; assay type: functional, cell-based; settings: MCF7, 48 h
SW480 [10] = assay: Cytotoxicity against human SW480 cells after 48 hrs by MTS assay; assay type: functional, cell-based; settings: SW480, 48 h

SMILES: COc1cc(O)c2c(=O)cc(Oc3ccc(O)cc3)oc2c1C[C@@H](O)C(C)(C)O
- inhibition of growth at 40 µM (HL-60 [1]): > 50%
- inhibition of growth at 40 µM (SMMC-7721 [2]): > 50%
- inhibition of growth at 40 µM (A549 [3]): > 50%
- inhibition of growth at 40 µM (MCF7 [4]): > 50%
- inhibition of growth at 40 µM (SW480 [5]): > 50%
- IC50 (HL-60 [6]): > 10 µM
- IC50 (SMMC-7721 [7]): > 10 µM
- IC50 (A549 [8]): > 10 µM
- IC50 (MCF7 [9]): > 10 µM
- IC50 (SW480 [10]): > 10 µM

SMILES: C=C(C)C(O)Cc1c(O)cc(O)c2c(=O)cc(Oc3ccc(O)cc3)oc12 (stereo not given)
- inhibition of growth at 40 µM (HL-60 [1]): > 50%
- inhibition of growth at 40 µM (SMMC-7721 [2]): > 50%
- inhibition of growth at 40 µM (A549 [3]): > 50%
- inhibition of growth at 40 µM (MCF7 [4]): > 50%
- inhibition of growth at 40 µM (SW480 [5]): > 50%
- IC50 (HL-60 [6]): > 10 µM
- IC50 (SMMC-7721 [7]): > 10 µM
- IC50 (A549 [8]): > 10 µM
- IC50 (MCF7 [9]): > 10 µM
- IC50 (SW480 [10]): > 10 µM

SMILES: CC(C)=CCc1cc(Oc2cc(=O)c3c(O)cc(O)c(CC=C(C)C)c3o2)ccc1O
- inhibition of growth at 40 µM (HL-60 [1]): > 50%
- inhibition of growth at 40 µM (SMMC-7721 [2]): > 50%
- inhibition of growth at 40 µM (A549 [3]): > 50%
- inhibition of growth at 40 µM (MCF7 [4]): > 50%
- inhibition of growth at 40 µM (SW480 [5]): > 50%
- IC50 (HL-60 [6]): > 10 µM
- IC50 (SMMC-7721 [7]): > 10 µM
- IC50 (A549 [8]): > 10 µM
- IC50 (MCF7 [9]): > 10 µM
- IC50 (SW480 [10]): > 10 µM

SMILES: CC(C)=CCc1cc(Oc2cc(=O)c3c(O)cc(O)c(CC=C(C)C)c3o2)cc(CC=C(C)C)c1O
- inhibition of growth at 40 µM (HL-60 [1]): > 50%
- inhibition of growth at 40 µM (SMMC-7721 [2]): > 50%
- inhibition of growth at 40 µM (A549 [3]): > 50%
- inhibition of growth at 40 µM (MCF7 [4]): > 50%
- inhibition of growth at 40 µM (SW480 [5]): > 50%
- IC50 (HL-60 [6]): > 10 µM
- IC50 (SMMC-7721 [7]): > 10 µM
- IC50 (A549 [8]): > 10 µM
- IC50 (MCF7 [9]): > 10 µM
- IC50 (SW480 [10]): > 10 µM

SMILES: COc1cc(O)c2c(=O)cc(Oc3ccc(O)cc3)oc2c1CC=C(C)C
- inhibition of growth at 40 µM (HL-60 [1]): > 50%
- inhibition of growth at 40 µM (SMMC-7721 [2]): > 50%
- inhibition of growth at 40 µM (A549 [3]): > 50%
- inhibition of growth at 40 µM (MCF7 [4]): > 50%
- inhibition of growth at 40 µM (SW480 [5]): > 50%
- IC50 (HL-60 [6]): > 10 µM
- IC50 (SMMC-7721 [7]): > 10 µM
- IC50 (A549 [8]): > 10 µM
- IC50 (MCF7 [9]): > 10 µM
- IC50 (SW480 [10]): > 10 µM

SMILES: CC(C)=CCc1cc(-c2cc(=O)c3c(O)cc(O)c(CC=C(C)C)c3o2)cc(CC=C(C)C)c1O
- inhibition of growth at 40 µM (HL-60 [1]): > 50%
- inhibition of growth at 40 µM (SMMC-7721 [2]): > 50%
- inhibition of growth at 40 µM (A549 [3]): > 50%
- inhibition of growth at 40 µM (MCF7 [4]): > 50%
- inhibition of growth at 40 µM (SW480 [5]): > 50%
- IC50 (HL-60 [6]): 4.3 µM
- IC50 (SMMC-7721 [7]): > 10 µM
- IC50 (A549 [8]): 7.1 µM
- IC50 (MCF7 [9]): 5.4 µM
- IC50 (SW480 [10]): 5.1 µM

SMILES: COc1ccc(-c2oc3c(c(O)cc4oc(C(C)(C)O)cc43)c(=O)c2O[C@@H]2O[C@@H](C)[C@H](O)[C@@H](O)[C@H]2O[C@@H]2O[C@@H](C)[C@H](O)[C@@H](O)[C@H]2O)cc1
- inhibition of growth at 40 µM (HL-60 [1]): > 50%
- inhibition of growth at 40 µM (SMMC-7721 [2]): > 50%
- inhibition of growth at 40 µM (A549 [3]): > 50%
- inhibition of growth at 40 µM (MCF7 [4]): > 50%
- inhibition of growth at 40 µM (SW480 [5]): > 50%
- IC50 (HL-60 [6]): > 10 µM
- IC50 (SMMC-7721 [7]): > 10 µM
- IC50 (A549 [8]): > 10 µM
- IC50 (MCF7 [9]): > 10 µM
- IC50 (SW480 [10]): > 10 µM

SMILES: CC(=O)O[C@H]1C(=O)[C@@]2(C)[C@H]([C@H](OC(=O)c3ccccc3)[C@]3(O)C[C@H](OC(=O)[C@H](O)[C@@H](NC(=O)c4ccccc4)c4ccccc4)C(C)=C1C3(C)C)[C@]1(OC(C)=O)CO[C@@H]1C[C@@H]2O [PACLITAXEL]
- IC50 (HL-60 [6]): < 0.008 µM
- IC50 (SMMC-7721 [7]): < 0.008 µM
- IC50 (A549 [8]): < 0.008 µM
- IC50 (MCF7 [9]): < 0.008 µM
- IC50 (SW480 [10]): < 0.008 µM

SMILES: CC(C)=CCc1c(O)cc(O)c2c(=O)cc(Oc3ccc(O)cc3)oc12
- inhibition of growth at 40 µM (HL-60 [1]): > 50%
- inhibition of growth at 40 µM (SMMC-7721 [2]): > 50%
- inhibition of growth at 40 µM (A549 [3]): > 50%
- inhibition of growth at 40 µM (MCF7 [4]): > 50%
- inhibition of growth at 40 µM (SW480 [5]): > 50%
- IC50 (HL-60 [6]): > 10 µM
- IC50 (SMMC-7721 [7]): > 10 µM
- IC50 (A549 [8]): > 10 µM
- IC50 (MCF7 [9]): > 10 µM
- IC50 (SW480 [10]): > 10 µM
